Laboratory results reported in ChEMBL document CHEMBL1150254, “Dihydroxystyrene metabolites from an association of the sponges Poecillastra wondoensis and Jaspis sp” (J Nat Prod, 2008).
Activity calls are given as the source filed them. The rule behind the calls is not given here.

Assays:
[1] = Inhibition of Staphylococcus aureus sortase A
Isocitrate lyase = Isocitrate lyase (Candida albicans, UniProt Q9P8Q7); assay: Inhibition of Candida albicans isocitrate lyase
A549 = assay: Antitumor activity against human A549 cells; assay type: functional, cell-based
K562 = assay: Antitumor activity against human K562 cells; assay type: functional, cell-based

Sequence of Isocitrate lyase (Q9P8Q7 whole entry): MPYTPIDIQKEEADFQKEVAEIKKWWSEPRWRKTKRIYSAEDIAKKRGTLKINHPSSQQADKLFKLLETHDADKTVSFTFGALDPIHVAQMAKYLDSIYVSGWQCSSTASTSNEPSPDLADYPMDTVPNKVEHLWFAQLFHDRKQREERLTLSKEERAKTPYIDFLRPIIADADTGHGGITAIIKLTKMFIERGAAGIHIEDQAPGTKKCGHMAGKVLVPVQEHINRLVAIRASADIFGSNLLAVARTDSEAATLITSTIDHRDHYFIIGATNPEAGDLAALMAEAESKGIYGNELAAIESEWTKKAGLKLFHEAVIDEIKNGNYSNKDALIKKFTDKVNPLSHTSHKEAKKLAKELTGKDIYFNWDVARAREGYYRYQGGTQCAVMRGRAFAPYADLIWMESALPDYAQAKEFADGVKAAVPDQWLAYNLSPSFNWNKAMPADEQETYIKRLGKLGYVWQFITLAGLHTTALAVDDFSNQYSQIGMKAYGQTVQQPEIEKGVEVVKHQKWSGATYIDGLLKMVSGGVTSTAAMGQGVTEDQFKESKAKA

Row | Compound | IC50 [1] [µg/mL] | IC50 (Isocitrate lyase) [µM] | Activity (A549) | Activity (K562)
1 | CN(C)C(=N)N.O=S(=O)(O)O/C=C/c1ccc2c(c1)OC(C(O)c1ccc(O)c(O)c1)O2 (centres undefined) [listing 1 of 2 here] | 82.4 | > 426 |  | 
2 | CN(C)C(=N)N.O=S(=O)(O)O/C=C/c1ccc2c(c1)OC(C(O)c1ccc(O)c(O)c1)O2 (centres undefined) [listing 2 of 2 here] |  |  | inactive | inactive
3 | O=S(=O)([O-])O/C=C/c1ccc(O)c(O)c1.[Na+] [JASPISIN] | 14.6 | > 787 |  | 
4 | O=S(=O)(O)O/C=C/c1ccc(OC2Oc3ccc(/C=C/OS(=O)(=O)O)cc3OC2c2ccc(O)c(O)c2)c(O)c1 (centres undefined) |  |  | inactive | inactive
5 | CN(C)CCc1cn(C(c2ccc(O)c(O)c2)C2Oc3ccc(/C=C\OS(=O)(=O)O)cc3O2)cn1 (centres undefined) |  |  | inactive | inactive
6 | O=S(=O)(O)O/C=C/c1ccc2c(c1)OC(C(O)c1ccc(O)c(O)c1)O2 (centres undefined) |  |  | inactive | inactive
7 | O=S(=O)([O-])O/C=C\c1ccc(O)c(O)c1.[Na+] [ISOJASPISIN] | 34.2 | > 787 |  | 
8 | CN(C)C(=N)N.CN(C)C(=N)N.O=S(=O)(O)O/C=C/c1ccc(OC2Oc3ccc(/C=C/OS(=O)(=O)O)cc3OC2c2ccc(O)c(O)c2)c(O)c1 (centres undefined) [listing 2 of 2 here] |  |  | inactive | inactive
9 | COC(OC)C(OC)c1ccc(O)c(O)c1 (centres undefined) | > 200 | 126 |  | 
10 | C=C(CC(=O)O)C(=O)O [ITACONATE] |  | 44.6 |  | 

The next lines start with results.

Row | IC50 [1] [µg/mL] | IC50 (Isocitrate lyase) [µM] | Compound | Activity (A549) | Activity (K562)
11 | > 200 | 306 | O=S(=O)([O-])O/C=C/c1ccc2c(c1)OC(C(O)c1ccc(O)c(O)c1)O2.[Na+] (centres undefined) |  | 
12 | > 200 | 91.3 | CN(C)CCc1cn(C(c2ccc(O)c(O)c2)C2Oc3ccc(/C=C\OS(=O)(=O)[O-])cc3O2)cn1.[Na+] (centres undefined) |  | 
13 | > 200 | 64.2 | O=S(=O)([O-])O/C=C/c1ccc(OC2Oc3cc(/C=C/OS(=O)(=O)[O-])ccc3OC2c2ccc(O)c(O)c2)c(O)c1.[Na+].[Na+] (centres undefined) | inactive | inactive
14 | > 200 | > 259 | CN(C)C(=N)N.CN(C)C(=N)N.O=S(=O)(O)O/C=C/c1ccc(OC2Oc3ccc(/C=C/OS(=O)(=O)O)cc3OC2c2ccc(O)c(O)c2)c(O)c1 (centres undefined) [listing 1 of 2 here] |  | 
15 | 163.5 | 271 | O=S(=O)([O-])O/C=C/c1ccc(OC2Oc3ccc(/C=C/OS(=O)(=O)[O-])cc3OC2c2ccc(O)c(O)c2)c(O)c1.[Na+].[Na+] (centres undefined) |  | 
16 | > 200 | 341 | O=S(=O)([O-])O/C=C/c1ccc2c(c1)OC(c1ccc(O)c(O)c1)C(OS(=O)(=O)[O-])O2.[Na+].[Na+] (centres undefined) |  | 
17 | > 200 | > 356 | CN(C)CCc1cn(C(c2ccc(O)c(O)c2)C2Oc3ccc(/C=C/OS(=O)(=O)[O-])cc3O2)cn1.Cl.[Na+] (mixture of isomers) |  | 
18 | 68.3 | 164 | CN(C)CCc1cn(C(c2ccc(O)c(O)c2)C2Oc3ccc(/C=C\OS(=O)(=O)[O-])cc3O2)cn1.Cl.[Na+] (centres undefined) |  | 
19 | > 200 | > 381 | CN(C)CCc1cn(C(c2ccc(O)c(O)c2)C2Oc3ccc(/C=C/OS(=O)(=O)[O-])cc3O2)cn1.[Na+] (centres undefined) |  | 
